Assay results reported in patent publication US6358885B1, “Substituted phenylheterocyclic herbicides” (Mississippi State University, priority 1992, dated 2002).

How the values were obtained:
Experiment in all cases: Test G preemergence/postemergence greenhouse plant response rating 0 to 100
alfalfa = format: in vivo, Medicago ativa; conditions: 0 to 100 scale
Summary of the method: (§1)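 Pre- and postemergence treatments used compound in non-phytotoxic solvent on potted greenhouse plants grown from seed, rhizome or plant part. Postemergence plants were at the 2–4 leaf stage; damage was assessed by eye versus untreated pots after 13–21 days.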

annual bluegrass = format: in vivo, Poa annua; conditions: 0 to 100 scale
Summary of the method: as §1

bermudagrass = format: in vivo, Cynodon dactylon; conditions: 0 to 100 scale
Summary of the method: as §1

broadleaf signalgrass = format: in vivo, Brachiaria plantaginea; conditions: 0 to 100 scale
Summary of the method: as §1

common purslane = format: in vivo, Portulaca oleracea; conditions: 0 to 100 scale
Summary of the method: as §1

common ragweed = format: in vivo, Ambrosia elatior; conditions: 0 to 100 scale
Summary of the method: as §1

dallisgrass = format: in vivo, Paspalum dilatatum; conditions: 0 to 100 scale
Summary of the method: as §1

goosegrass = format: in vivo, Eleusine indica; conditions: 0 to 100 scale
Summary of the method: as §1

guineagrass = format: in vivo, Panicum maximum; conditions: 0 to 100 scale
Summary of the method: as §1

itchgrass = format: in vivo, Rottboellia exaltata; conditions: 0 to 100 scale
Summary of the method: as §1

johnsongrass = format: in vivo, Sorghum halepense; conditions: 0 to 100 scale
Summary of the method: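 Visual injury scores, taken 13–21 d after spraying and judged against untreated pots; dash = not tested. Single-species greenhouse pots; test chemical dissolved in non-phytotoxic solvent. Pre: applied ≤1 d post-planting.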

large crabgrass = format: in vivo, Digitaria sanguinalis; conditions: 0 to 100 scale
Summary of the method: as §1

peanut = format: in vivo, Arachis hypoagaea; conditions: 0 to 100 scale
Summary of the method: as §1

pitted morningglory = format: in vivo, Ipomoea lacunosa; conditions: 0 to 100 scale
Summary of the method: as §1

purple nutsedge = format: in vivo, Cyperus rotundus; conditions: Rate 125 g/ha, 0 to 100 scale
Summary of the method: as §1

smooth crabgrass = format: in vivo, Digitaria ischaemum; conditions: 0 to 100 scale
Summary of the method: as §1

yellow nutsedge = format: in vivo, Cyperus esculentus; conditions: Rate 125 g/ha, 0 to 100 scale
Summary of the method: as §1

COc1cc(-c2nn3c(c2Cl)CCCC3)c(F)cc1Cl [Compound 29]
Plant response rating, Alfalfa Var. (alfalfa; POSTEMERGENCE, Rate 125 g/ha): 0 | Plant response rating, Alfalfa Var. (alfalfa; POSTEMERGENCE, Rate 250 g/ha): 70 | Plant response rating, Alfalfa Var. (alfalfa; PREEMERGENCE, Rate 125 g/ha): 0 | Plant response rating, Alfalfa Var. (alfalfa; PREEMERGENCE, Rate 250 g/ha): 0 | Plant response rating, Ann Bluegrass (annual bluegrass; POSTEMERGENCE, Rate 125 g/ha): 0 | Plant response rating, Ann Bluegrass (annual bluegrass; POSTEMERGENCE, Rate 250 g/ha): 0 | Plant response rating, Ann Bluegrass (annual bluegrass; PREEMERGENCE, Rate 125 g/ha): 0 | Plant response rating, Ann Bluegrass (annual bluegrass; PREEMERGENCE, Rate 250 g/ha): 0 | Plant response rating, Bermudagrass (bermudagrass; POSTEMERGENCE, Rate 125 g/ha): 0 | Plant response rating, Bermudagrass (bermudagrass; POSTEMERGENCE, Rate 250 g/ha): 0 | Plant response rating, Bermudagrass (bermudagrass; PREEMERGENCE, Rate 125 g/ha): 0 | Plant response rating, Bermudagrass (bermudagrass; PREEMERGENCE, Rate 250 g/ha): 50 | Plant response rating, Brdlf Sgnlgrass (broadleaf signalgrass; POSTEMERGENCE, Rate 125 g/ha): 0 | Plant response rating, Brdlf Sgnlgrass (broadleaf signalgrass; POSTEMERGENCE, Rate 250 g/ha): 0 | Plant response rating, Brdlf Sgnlgrass (broadleaf signalgrass; PREEMERGENCE, Rate 125 g/ha): 0 | Plant response rating, Brdlf Sgnlgrass (broadleaf signalgrass; PREEMERGENCE, Rate 250 g/ha): 0 | Plant response rating, Cmn Purslane (common purslane; POSTEMERGENCE, Rate 125 g/ha): 90 | Plant response rating, Cmn Purslane (common purslane; POSTEMERGENCE, Rate 250 g/ha): 80 | Plant response rating, Cmn Purslane (common purslane; PREEMERGENCE, Rate 125 g/ha): 0 | Plant response rating, Cmn Purslane (common purslane; PREEMERGENCE, Rate 250 g/ha): 100 | Plant response rating, Cmn Ragweed (common ragweed; POSTEMERGENCE, Rate 125 g/ha): 20 | Plant response rating, Cmn Ragweed (common ragweed; POSTEMERGENCE, Rate 250 g/ha): 60 | Plant response rating, Cmn Ragweed (common ragweed; PREEMERGENCE, Rate 125 g/ha): 20 | Plant response rating, Cmn Ragweed (common ragweed; PREEMERGENCE, Rate 250 g/ha): 40 | Plant response rating, Dallisgrass (dallisgrass; POSTEMERGENCE, Rate 125 g/ha): 0 | Plant response rating, Dallisgrass (dallisgrass; POSTEMERGENCE, Rate 250 g/ha): 0 | Plant response rating, Dallisgrass (dallisgrass; PREEMERGENCE, Rate 125 g/ha): 80 | Plant response rating, Dallisgrass (dallisgrass; PREEMERGENCE, Rate 250 g/ha): 90 | Plant response rating, Goosegrass (goosegrass; POSTEMERGENCE, Rate 125 g/ha): 0 | Plant response rating, Goosegrass (goosegrass; POSTEMERGENCE, Rate 250 g/ha): 0 | Plant response rating, Goosegrass (goosegrass; PREEMERGENCE, Rate 125 g/ha): 90 | Plant response rating, Goosegrass (goosegrass; PREEMERGENCE, Rate 250 g/ha): 100 | Plant response rating, Guineagrass (guineagrass; POSTEMERGENCE, Rate 125 g/ha): 0 | Plant response rating, Guineagrass (guineagrass; POSTEMERGENCE, Rate 250 g/ha): 0 | Plant response rating, Guineagrass (guineagrass; PREEMERGENCE, Rate 125 g/ha): 0 | Plant response rating, Guineagrass (guineagrass; PREEMERGENCE, Rate 250 g/ha): 100 | Plant response rating, Itchgrass (itchgrass; POSTEMERGENCE, Rate 125 g/ha): 0 | Plant response rating, Itchgrass (itchgrass; POSTEMERGENCE, Rate 250 g/ha): 0 | Plant response rating, Itchgrass (itchgrass; PREEMERGENCE, Rate 125 g/ha): 100 | Plant response rating, Itchgrass (itchgrass; PREEMERGENCE, Rate 250 g/ha): 40 | Plant response rating, Johnsongrass (johnsongrass; POSTEMERGENCE, Rate 125 g/ha): 0 | Plant response rating, Johnsongrass (johnsongrass; POSTEMERGENCE, Rate 250 g/ha): 0 | Plant response rating, Johnsongrass (johnsongrass; PREEMERGENCE, Rate 125 g/ha): 0 | Plant response rating, Johnsongrass (johnsongrass; PREEMERGENCE, Rate 250 g/ha): 0 | Plant response rating, Large Crabgrass (large crabgrass; POSTEMERGENCE, Rate 125 g/ha): 0 | Plant response rating, Large Crabgrass (large crabgrass; POSTEMERGENCE, Rate 250 g/ha): 0 | Plant response rating, Large Crabgrass (large crabgrass; PREEMERGENCE, Rate 125 g/ha): 80 | Plant response rating, Large Crabgrass (large crabgrass; PREEMERGENCE, Rate 250 g/ha): 100 | Plant response rating, Peanuts (peanut; POSTEMERGENCE, Rate 125 g/ha): 0 | Plant response rating, Peanuts (peanut; POSTEMERGENCE, Rate 250 g/ha): 0 | Plant response rating, Peanuts (peanut; PREEMERGENCE, Rate 125 g/ha): 0 | Plant response rating, Peanuts (peanut; PREEMERGENCE, Rate 250 g/ha): 0 | Plant response rating, Pit Morninglory (pitted morningglory; POSTEMERGENCE, Rate 125 g/ha): 0 | Plant response rating, Pit Morninglory (pitted morningglory; POSTEMERGENCE, Rate 250 g/ha): 70 | Plant response rating, Pit Morninglory (pitted morningglory; PREEMERGENCE, Rate 125 g/ha): 0 | Plant response rating, Pit Morninglory (pitted morningglory; PREEMERGENCE, Rate 250 g/ha): 30 | Plant response rating, Purple Nutsedge (purple nutsedge; POSTEMERGENCE): 0 | Plant response rating, Purple Nutsedge (purple nutsedge; PREEMERGENCE): 0 | Plant response rating, Smooth Crabgras (smooth crabgrass; POSTEMERGENCE, Rate 125 g/ha): 0 | Plant response rating, Smooth Crabgras (smooth crabgrass; POSTEMERGENCE, Rate 250 g/ha): 0 | Plant response rating, Smooth Crabgras (smooth crabgrass; PREEMERGENCE, Rate 125 g/ha): 0 | Plant response rating, Smooth Crabgras (smooth crabgrass; PREEMERGENCE, Rate 250 g/ha): 100 | Plant response rating, Yellow Nutsedge (yellow nutsedge; POSTEMERGENCE): 0 | Plant response rating, Yellow Nutsedge (yellow nutsedge; PREEMERGENCE): 0
